Measurements: patent US20190160257A1, “METHODS AND SYSTEMS FOR INHIBITING VASCULAR INFLAMMATION” (Mercator MedSystems, Inc., priority 2002, published 2019)
Entries after “also recorded” stand apart in the source; their conditions may differ.

Assays:
[1] = Distribution of tacrolimus after periadventitial injection in swine coronary arteries, LC/MS of tissue; assay type: in vivo
Method: Distribution of a lipophilic compound (tacrolimus): Eight swine underwent angiography. […] The two remaining arteries served as untreated controls. An untreated heart was used as a negative control. At 48 hours arteries were dissected from the musculature and perivascular fat, cut into 5 mm sections and analyzed by Liquid Chromatography/Mass Spectrometry against tacrolimus calibration standards containing homogenized untreated porcine heart tissue.

[2] = pig, in vivo
Method: Injections were made to depths in the range from 0.8 mm to 1.2 mm One artery was treated intraluminally with 5 mL OGP to determine background vascular uptake. Animals were sacrificed 0.5-23 hr post-procedure following IACUC-approved protocol. After sacrifice, the LAD, RCA and LCx were removed, cut into 4-5 mm sections, which were frozen and cryosectioned. The slides were counter-stained with 0.1% Evan's Blue in PBS (5 min 37 C) to quench autofluorescence, observed with a UV microscope, and scored 0-4+. Representative sections were photographed.

[3] = test system: graft-vein anastomosis and proximal vein of porcine AV grafts; conditions: pig, in vivo
Method: Fourteen days after graft implantation, percutaneous transluminal angioplasty (PTA) was performed (7 mm balloon, 16 atmosphere inflation pressure) at two sites per graft: across the graft-vein anastomosis (GVA) and in the proximal vein (PV). […] Infusions of 3 ml were always consistent between the 2 grafts in each animal.

[4] = test system: patients with superficial femoral or popliteal artery lesions; experiment: DANCE Trial: circulating hsCRP and MCP-1 after revascularization with adventitial and perivascular dexamethasone; assay type: in vivo, human; conditions: baseline and 24 hours, about 1.6 mg per cm of lesion
Method: An additional study has enrolled 140 patients in the United States, meeting similar enrollment criteria as those in the 20-patient study described above. In these patients, approximately one-third of them have had blood draws right before a revascularization procedure of their superficial femoral or popliteal artery, and then again at 24±4 hours after their revascularization procedure. Arterial lesions in this study were at least 70% occlusive prior to revascularization and up to 15 cm in length. Revascularization therapy was performed with angioplasty, atherectomy, provisional stenting, or a combination thereof. […] The Schillinger 2002 published research would indicate the likelihood for a substantial rise in the hsCRP after revascularization therapy, and that this rise is linked to the rate of restenosis at 6 months following the revascularization procedure. The data from Schillinger 2002 and the 20-patient study described above (the DANCE-Pilot, in which 15 patients had baseline and 24 hour hsCRP levels examined) are plotted in FIG. 15, along with 41 patients from the larger 139 patient group (the DANCE Trial).
Additional data coming out of the interim analysis of the DANCE study includes the first 9 patients to have MCP-1 analyzed from their circulating blood at baseline and at 24 hours. […]

[5] = test system: patients with atherosclerotic lower extremity occlusive disease of the superficial femoral or popliteal arteries
Source text: Patients with TASC II A, B, and C disease of the superficial femoral and/or popliteal arteries were eligible for this study.
Unique identifier: NCT 01507558). The study design was a prospective, single-center, investigator-initiated study that enrolled consecutive patients who met eligibility requirements from the San Francisco Veteran Affairs Medical Center. This study was approved by the Committee for Human Research and the University of California Clinical and Translational Science Institute. Safety data and outcomes were monitored by a Data Safety and Monitoring Committee that convened on a quarterly basis or as needed.
The primary inclusion criteria were patients suffering from moderate to severe disabling claudication, ischemic rest pain, or minor tissue loss secondary to atherosclerotic lower extremity occlusive disease with TransAtlantic Inter-Society Consensus II […] lesions of the superficial femoral artery (SFA) or popliteal arteries.
The Bullfrog® Micro-Infusion is a rapid-exchange, wire-guided catheter with a balloon-sheathed 0.9-mm-long, 35-gauge (140 μm diameter) needle that delivers infusions to adventitial and perivascular tissues. It is Food and Drug Administration 510(k)-cleared for use in coronary and peripheral arteries. It is advanced through a 6F sheath over a 0.014-inch wire and can treat vessels from 3 to 6 mm in diameter. Three radio-opaque markers on the catheter allow for proper orientation of the needle. Using standard angioplasty inflation equipment, the balloon was inflated exposing the needle. When the balloon contacted the arterial wall opposite the needle tip, contact pressure forced the needle through the vessel wall and into the adventitia and perivascular tissues. The contact pressure of the balloon against the artery wall is limited to 2 atmospheres by a pressure release valve, which prevents damage to the artery wall. A mixture of infusate and contrast (4:1) was then delivered under fluoroscopic guidance into the adventitia. A test injection of 0.1 mL was made to confirm proper adventitial placement of the microinfusion needle tip. If resistance is met, or the test injection enters the blood stream, the balloon was deflated and the injection is attempted in another location by moving the catheter a few millimeters proximally or distally or rotating the catheter a few degrees. Once adventitia placement was confirmed, the remainder of the infusate was delivered at a rate of 1 mL/min. When the infusion was complete, the balloon was deflated, sheathing the needle, and allowing the catheter to be withdrawn. FIG. 12. Injections were administered approximately every 3 cm along the length of the treated arterial segment.
Patients not taking aspirin or clopidogrel before study enrollment received 325 mg of aspirin 12 hours prior the procedure. Postprocedure, patients were prescribed 81 mg/d of aspirin to be taken indefinitely and 75 mg/d of clopidogrel daily for 12 weeks. Vascular access was accomplished by either the contralateral or ipsilateral (anterograde) approach. Patients received a bolus of 5000 IU of heparin after insertion of the sheath in the common femoral artery, and their activated clotting time was kept above 250 seconds with additional heparin as needed. In the case of chronic total occlusions, all lesions were crossed subintimally with a glide wire and glide catheter (Terumo, Somerset, N.J.). After securing access across the lesion with a guidewire, the target lesion was treated according to physician preference. All patients were treated with balloon angioplasty.

[6] = two injections of 0.5 mL 5% silver nitrate per iliac artery
Source text: The animal was sacrificed according to approved protocol following the last injection. The arteries were removed and placed in 10% formalin without perfusion. 2 mm segments were embedded in paraffin, sectioned, and hematoxylin-eosin stained.

Molecule: C=CC[C@@H]1/C=C(\C)C[C@H](C)C[C@H](OC)[C@H]2O[C@@](O)(C(=O)C(=O)N3CCCC[C@H]3C(=O)O[C@H](/C(C)=C/[C@@H]3CC[C@@H](O)[C@H](OC)C3)[C@H](C)[C@@H](O)CC1=O)[C@H](C)C[C@@H]2OC [tacrolimus]
- segments in which drug was detected ([1]; 48 hours, including side branches and uninjected arteries): 285/293
- subjects with distribution to the entire coronary tree ([1]; periadventitial delivery, higher concentrations at injection sites): 8/8

Molecule: Oregon Green® 488 paclitaxel [OGP]
- circumferential staining [2]: staining was observed throughout the circumference of the artery

Molecule: C[C@@H]1C[C@H]2[C@@H]3CCC4=CC(=O)C=C[C@]4(C)[C@@]3(F)[C@@H](O)C[C@]2(C)[C@@]1(O)C(=O)CO [dexamethasone]
- adverse effect compared to placebo in the adventitia [3]: no observable adverse effect
- effect on hsCRP inflammatory spike after revascularization ([4]; 41 patients, versus Schillinger 2002, FIG. 15): capable of reducing the inflammatory spike
- change in circulating MCP-1 ([4]; first 9 patients, FIG. 16): marked drop in MCP-1; also recorded: a drop in MCP-1
- patients with target lesion restenosis ([5]; 6 month follow up, PSV ratio >2.4 or occlusion by ultrasound): two
- Rutherford classification scores versus pre-op baseline ([5]; 6 months, all patients but the one with target lesion restenosis): improved
- mean Rutherford score ([5]; 6 months, preoperative 3.1±0.71, P<0.00001): 0.5±0.70
- median Rutherford score ([5]; 6 months, preoperative median 3.0): 0
- mean ABI versus baseline ([5]; all time points post procedure, FIG. 14): significantly improved
- patients with only partial coverage by contrast distribution (grade=B) ([5]; assessed by fluoroscopy): one
- subjects with complete circumferential coverage of the lesion with the infusate (grade=A) ([5]; assessed by fluoroscopy immediately after the infusion): 19 out of 20 subjects
- patients with loss of primary patency (duplex ultrasound binary restenosis) ([5]; by 6 months, 20 patients): Two
- anticipated rise of hsCRP ([5]; compared with Schillinger 2002): appears to be dampened
- patients with target extremity stenosis not within the treated segment ([5]; follow up 381±181 days): Three
- ABI measurements ([5]; one-year follow up, N=10, P<0.0001 vs baseline): 1.04±0.21
- PSVR ([5]; one-year follow up, patients without index lesion restenosis, N=8): 1.1±0.6
- CRP at 24 hours following the procedure ([5]; preoperative 6.9±8.5, P=0.14): 14.0 ± 23.1 mg/L
- increase of CRP at 24 hours ([5]; versus preoperative, not statistically significant (P=0.14)): 103%
- drug or device-related adverse events reported ([5]; within 30 days, acute hyperglycemia in one patient, controlled by insulin): one

Molecule: O=[N+]([O-])[O-].[Ag+] [Silver Nitrate]
- staining: site of delivery and diffusion [6]: delivery outside the external elastic lamina of the vessels and diffusion around the circumference
